Laboratory results taken from patent publication US20190231757A1, “COMBINATION OF SPLEEN TYROSINE KINASE INHIBITORS AND OTHER THERAPEUTIC AGENTS” (Takeda Pharmaceutical Company Limited, priority 2016, published 2019).
Where a name gives a salt, the structure may show the parent alone.

Legend:
Format in all cases: in vivo, mouse
Ly19 xenografts = assay: Antitumor activity in SCID mice bearing Ly19 xenografts, bendamustine combination (Example 4); details: alone or combined
[1] = test system: OCI-Ly10 human DLBCL xenografts; assay: Antitumor activity in SCID mice bearing OCI-Ly10 human DLBCL xenografts, ibrutinib or bendamustine combination (Example 5); details: Day 21; Compound A 60 mg/kg PO QD; ibrutinib 6 mg/kg PO QD; bendamustine 1 mg/kg IV BIW (6 doses); alone or combined with Compound A; citrate
OCI-LY10 xenografts = assay: Antitumor activity in CB17 SCID mice bearing OCI-LY10 xenografts, gemcitabine combination (Example 7); details: Day 21, alone or combined
Description: Tumor growth inhibition was calculated on Day 21 of the study. The last measurement was taken on Day 42 of the study.
(§1) Experimental design: Female CB17 SCID mice (Taconic Biosciences; weight at treatment start was 20 g) were inoculated subcutaneously in the flank (cell suspension) with 4.0×10^6 OCI-Ly10 cells. Tumor volume was calculated using the formula V=W^2×L/2, where V=volume, W=width and L=length of the tumor. When the mean tumor volume reached approximately 199 mm^3, the animals were randomized into 6 treatment groups (n=8/group). […] Tumor growth and body weight were measured twice per week. Tumor growth inhibition and body weight change were calculated on Day 21 of treatment.
(§2) Statistical analysis: The differences in the tumor growth trends over time between pairs of treatment groups were assessed using linear mixed effects regression models. These models account for the fact that each animal was measured at multiple time points. A separate model was fit for each comparison, and the areas under the curve (AUC) for each treatment group were calculated using the predicted values from the model. The percent decrease in AUC (dAUC) relative to the reference group was then calculated. […] Further details regarding pairwise comparisons are provided in the Example 2.
(§3) Drug combinations were assessed for synergy using observed AUC values. The change in AUC relative to the control was calculated for both single agent treatment groups as well as the combination group. The interaction between the two compounds was then assessed by comparing the change in AUC observed in the combination group to the sum of the changes observed in both single agents. The results can be divided into four categories: synergistic, additive, sub-additive, and antagonistic. Further details regarding combination analyses are provided in the Example 2.
(§4) Once a final analysis was selected, the tumor measurements observed on a date pre-specified by the researcher (typically the last day of treatment) were analyzed to assess tumor growth inhibition. For this analysis, a T/C ratio was calculated for each animal by dividing the tumor measurement for the given animal by the mean tumor measurement across all control animals. The T/C ratios across a treatment group were compared to the T/C ratios of the control group using a two-tailed Welch's t-test.

TMD8 DLBCL xenografts [2] = assay: Antitumor activity in CB17 SCID mice bearing TMD8 DLBCL xenografts, gemcitabine combination (Example 8); details: Day 14, alone or combined
Description: Tumor growth inhibition was calculated on Day 14 of the study. The last measurement was taken on Day 40 of the study.
as §1, with “19” for “20”, “5.0×10^6 TMD8” for “4.0×10^6 OCI-Ly10”, “cells. Tumor growth was monitored with vernier calipers.” for “cells.”, “215” for “199”, “into” for “into 6”, “14” for “21”
as §2
as §3, with “analysis” for “analyses”
as §4

TMD8 DLBCL xenografts [3] = assay: Antitumor activity in CB17 SCID mice bearing TMD8 DLBCL xenografts, ABT-199 or gemcitabine combination (Example 9); details: Day 14, alone or combined with Compound A
Description: Tumor growth inhibition was calculated on Day 14 of the study. The last measurement was taken on Day 29 of the study.
as §1, with “about 19” for “20”, “5.0×10^6 TMD8” for “4.0×10^6 OCI-Ly10”, “cells. Tumor growth was monitored with vernier calipers.” for “cells.”, “245” for “199”, “14” for “21”
as §2, §3, §4

[4] = test system: OCI-Ly10 human lymphoma xenografts; assay: Antitumor activity in SCID mice bearing OCI-Ly10 human lymphoma xenografts, lenalidomide combination (Example 10); details: alone or combined
[5] = Body weight and tolerability, OCI-LY10 ABT-199 study (Example 11); details: alone or combined
Description: as §1, with “(Charles River Laboratories, about 21 g” for “(Taconic Biosciences; weight”, “start)” for “start was 20 g)”, “cells. Tumor growth was monitored with vernier calipers.” for “cells.”, “175” for “199”, “into” for “into 6”, “(n=5/group).” for “(n=8/group).”

[6] = Body weight and tolerability, WSU-Luc ibrutinib study (Example 12); details: alone or combined
Description: Tumor growth was monitored with vernier calipers. Tumor volume was calculated using the formula V=W^2×L/2, where V=volume, W=width and L=length of the tumor. When the mean tumor volume reached approximately 190 mm^3, the animals were randomized into treatment groups (n=8/group). […] Tumor growth and body weight were measured twice per week. Tumor growth inhibition and body weight change were calculated on Day 20 of treatment.

[7] = Day 14, Compound A 60 mg/kg PO QD x14, bendamustine 1.0 mg/kg IV BIW x2
[8] = Compound A 60 mg/kg PO QD, gemcitabine 2.5 mg/kg IP Q3D
[9] = Compound A 60 mg/kg, ABT-199 25 mg/kg, gemcitabine 5 mg/kg

Cn1cc(-c2nc(N[C@@H]3CCCC[C@@H]3N)c(F)c3c2C(=O)NC3)cn1 [Compound A, 6-((1R,2S)-2-aminocyclohexylamino)-7-fluoro-4-(1-methyl-1H-pyrazol-4-yl)-1H-pyrrolo[3,4-c]pyridine-3 (2H)-one citrate]
Mean Tumor Volume (mm^3) ± SEM at Day 14 (Ly19 xenografts; [7]): 1683.9 ± 167.1 mm^3
TGI (%) (Ly19 xenografts; [7]): 32.6%
dAUC (Ly19 xenografts; vs vehicle, Compound A 60 mg/kg, bendamustine 1.0 mg/kg): 18.8
TGI [1]: 38.8%
Mean Tumor Volume (mm^3) ± SEM (OCI-LY10 xenografts; [8]): 409.4 ± 55.2 mm^3
TGI (%) (OCI-LY10 xenografts; [8]): 65.5%
T/C (OCI-LY10 xenografts; Compound A 60 mg/kg, gemcitabine 2.5 mg/kg): 0.35
Mean Tumor Volume (mm^3) ± SEM (TMD8 DLBCL xenografts [2]; Compound A 60 mg/kg PO QD, gemcitabine 5 mg/kg IP Q3D x4): 957.2 ± 82.2 mm^3
T/C (TMD8 DLBCL xenografts [2]; Compound A 60 mg/kg, gemcitabine 5 mg/kg): 1.07
TGI (%) (TMD8 DLBCL xenografts [3]; Compound A 60 mg/kg PO QD, ABT-199 25 mg/kg PO QD, gemcitabine 5 mg/kg IP Q3D x4): 25.7%
Mean Tumor Volume (mm^3) ± SEM (TMD8 DLBCL xenografts [3]; [9]): 1,100.2 ± 134.5 mm^3
T/C (TMD8 DLBCL xenografts [3]; [9]): 0.74
TGI ([4]; Day 21, Compound A 60 mg/kg PO QD x21, lenalidomide 10 mg/kg PO QD x21, citrate): 43.6%
ΔAUC ([4]; vs vehicle, Compound A 60 mg/kg, lenalidomide 10 mg/kg): 34.7 (p < 0.001)
% BW Change (Day Maximum) ([5]; Compound A 60 mg/kg PO QD 21 d, ABT-199 12.5 mg/kg PO QD 21 d): −0.0 (3) %
Number of animals removed ([5]; Compound A 60 mg/kg, ABT-199 12.5 mg/kg): 0
% BW Change (Day Maximum) ([6]; Compound A 60 mg/kg PO QD 21 d, ibrutinib 20 mg/kg PO QD 21 d): 11.6 (20) %
Number of animals removed ([6]; Compound A 60 mg/kg, ibrutinib 20 mg/kg): 0
